We go through 7 compounds from patent publication US10300071B2, “Compositions and methods for inhibition of mycobacteria” (priority 2014, dated 2019).

The subject of data set [1] is S. cerevisiae.
The target in data set [2] is Mtb AccD6 (Mycobacterium tuberculosis, UniProt P9WQH5). Briefly: biochemical. It is filed as biochemical.
Data set [3] deals with Mtb strain mc^2-7000. The data set is described as follows: microbe, parasite or virus in culture. It counts as cell-based, Mycobacterium tuberculosis. The note with it: Mycobacterium tuberculosis, 144 h.
Data set [4] relates to human fibroblast.
Data set [5] is described as follows: Pharmacokinetic studies in mice, plasma concentration after gavage (LC/MS). The following applies: for peak plasma concentration, 30 minutes after gavage / peak plasma concentration, 90 minutes after gavage: 100 mg/kg gavage, PEG or canola oil; for Plasma conc. 24 Hrs. after 1st dose / Plasma conc. 24 Hrs. after last dose: oral, 1 dose/day x 4 days, NZ-331 200 mg/kg, NZ-332 and NZ-369 100 mg/kg; for peak plasma concentration (FIG. 6A): two doses 200 mg/kg 8 h apart, approx. 12 hours after first dose, 4 hours after second.

In data set [6] the test system is plasma protein. Briefly: Plasma protein binding assay. The method, then: Protein plasma binding assays were conducted in female mice for each of the arylphenoxypropionate derivatives quizalofop-p, quizalofop-p-ethyl, fenoxaprop-p, and fenoxaprop-p-ethyl.
The nature of data set [7]: in vivo. The note with it: rat.
For data set [8] the following is noted: rat, in vivo.
For data set [9] the following is noted: cited from earlier work.
The conditions of data set [10]: mammals, within three days; cited from earlier work.
Data set [11] is described as follows: Additional pharmacokinetic studies in rats.
The conditions of data set [12]: 1-year feeding study, dogs; cited from earlier work.
For data set [13] the following is noted: CPRC; cited from earlier work.
Setting [14] is: 300 μM malonyl-CoA, inhibitor 10 μM to 2000 μM, read-out: IC50.
Where [15] appears, read: 6 days incubation at 37° C., resazurin, read on the 7th day, read-out: MIC.

Converted amounts (≈) assume the structure as drawn. Where two headings read alike, the source gives them in different places.

Mtb AccD6, sequence (P9WQH5 whole entry, looked up): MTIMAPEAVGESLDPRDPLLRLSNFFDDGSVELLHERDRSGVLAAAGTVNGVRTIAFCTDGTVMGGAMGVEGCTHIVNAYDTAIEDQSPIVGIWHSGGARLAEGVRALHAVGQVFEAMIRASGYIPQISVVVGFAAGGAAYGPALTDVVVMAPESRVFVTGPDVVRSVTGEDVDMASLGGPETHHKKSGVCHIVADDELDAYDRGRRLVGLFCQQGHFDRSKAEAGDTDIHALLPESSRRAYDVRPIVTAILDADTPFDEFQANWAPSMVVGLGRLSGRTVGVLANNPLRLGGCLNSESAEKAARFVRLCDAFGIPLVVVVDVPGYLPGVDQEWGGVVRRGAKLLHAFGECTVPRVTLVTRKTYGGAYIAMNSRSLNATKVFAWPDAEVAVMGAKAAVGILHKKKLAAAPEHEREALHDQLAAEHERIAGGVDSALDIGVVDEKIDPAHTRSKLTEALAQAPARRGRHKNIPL

For `CC(C)NC(=O)Nc1ccc(Oc2nc3ccc(Cl)cc3s2)cc1` [NZ-331, 1-{4-[(6-chloro-1,3-benzothiazol-2-yl)oxy]phenyl}-3-(propan-2-yl)urea], in data set [1], the “concentrations at which not toxic, s. cerevisiae cytotoxicity” value is not below 100 µM. Also, the 50% inhibitory concentration (IC50) in [2] (setting [14]) is 800 nM. Also, in data set [3] (setting [15]), the MIC came to 0.8 µM (≈ 0.289 µg/mL). Moreover, the “concentrations at which not toxic, human fibroblast cytotoxicity” value in data set [4] is not below 100 µM. Also, in data set [5], the “peak plasma concentration, 30 minutes after gavage” value is on record as “approximately 6 μL/mg” and the “peak plasma concentration, 90 minutes after gavage” value turned out to be 9. Further, in data set [5] (canola oil), the “Plasma conc. 24 Hrs. after 1st dose” value is reported as 17.7 (±2.7) μg/ml and the “Plasma conc. 24 Hrs. after last dose” value is 27.1 (±13.7) μg/ml. Moreover, the “peak plasma concentration (FIG. 6A)” value in data set [5] (canola oil, gavage) is “approximately 23 μL/mg”. Moreover, the “peak plasma concentration (FIG. 11), 24 hours” value in data set [5] (two doses 200 mg/kg 8 hours apart, canola oil, 24 hours after gavage) was found to be 34.5. Moreover, the “corrected peak plasma concentration (FIG. 6B)” value in data set [5] (two doses 200 mg/kg, canola oil, gavage, approx. 24 hours after first dose, 16 hours after second) was “approximately 138 μL/mg”.

`CC(C)NC(=O)Nc1ccc(Oc2nc3ccc(F)cc3s2)cc1` [NZ-332, 1-{4-[(6-fluoro-1,3-benzothiazol-2-yl)oxy]phenyl}-3-(propan-2-yl)urea]: the “concentrations at which not toxic, s. cerevisiae cytotoxicity” value in [1] was not below 100 µM. In addition, the IC50 in [2] (setting [14]) was 650 nM. In addition, in data set [3] (setting [15]), the MIC worked out at 0.8 µM (≈ 0.276 µg/mL). Further, in data set [4], the “concentrations at which not toxic, human fibroblast cytotoxicity” value is not below 100 µM. Also, in data set [5], the “peak plasma concentration, 30 minutes after gavage” value is given as “approximately 9 μL/mg” and the “peak plasma concentration, 90 minutes after gavage” value is 13. Also, in data set [5] (canola oil), the “Plasma conc. 24 Hrs. after 1st dose” value was 2.2 (±0.6) μg/ml and the “Plasma conc. 24 Hrs. after last dose” value is on record as 1.8 (±0.2) μg/ml. Besides, in data set [5] (canola oil, gavage), the “peak plasma concentration (FIG. 6A)” value was “approximately 34 μL/mg”.

`CNC(=O)C(C)c1ccc(Oc2nc3ccc(Cl)cc3s2)cc1` (stereo not drawn) [NZ-369, 2-{4-[(6-chloro-1,3-benzothiazol-2-yl)oxy]phenyl}-N-methylpropanamide]: the “concentrations at which not toxic, s. cerevisiae cytotoxicity” value in data set [1] was not below 100 µM. Moreover, the IC50 in [2] (setting [14]) turned out to be 870 nM. Also, in [3] (setting [15]), the MIC was 0.73 to 0.98 µM (≈ 0.253 to 0.34 µg/mL). Besides, the “concentrations at which not toxic, human fibroblast cytotoxicity” value in data set [4] was not below 100 µM. Further, in [5] (canola oil), the “Plasma conc. 24 Hrs. after 1st dose” value is listed as 0.74 (±0.09) μg/ml and the “Plasma conc. 24 Hrs. after last dose” value is 0.57 (±0.07) μg/ml. In addition, in data set [5] (single dose 200 mg/kg, canola oil, gavage, 2 hours after gavage), the “peak plasma concentration (FIG. 10)” value came out at 27.4. Moreover, the “peak plasma concentration (FIG. 11), 2 hours” value in data set [5] (two doses 200 mg/kg 8 hours apart, canola oil, 2 hours after gavage) is 27.4.

`CC(Oc1ccc(Oc2nc3ccc(Cl)cc3o2)cc1)C(=O)O` (stereo not drawn) [fenoxaprop-p, 2-{4-[(6-chloro-1,3-benzoxazol-2-yl)oxy]phenoxy}propanoic acid, reference compound]: in [6] (female, mouse), the “Percentage of Compound Bound” value is given as 98.58% and the “Percentage of Compound Recovered” value is listed as 76%. Moreover, the IC50 in [2] (setting [14]) worked out at 1500 nM. In addition, the MIC in data set [3] (setting [15]) amounted to 25 µM (≈ 8.34 µg/mL). The “concentrations at which not toxic, human fibroblast cytotoxicity” value in data set [4] was not below 100 µM.

Take `CCOC(=O)[C@@H](C)Oc1ccc(Oc2nc3ccc(Cl)cc3o2)cc1` [fenoxaprop-p-ethyl, ethyl (2R)-2-{4-[(6-chloro-1,3-benzoxazol-2-yl)oxy]phenoxy}propanoate]: the “stability under assay conditions (plasma esterase activity)” value in data set [6] is recorded as “not stable under assay conditions”. Further, the half-life in data set [7] (initial phase) lay within 9 to 11 h. The compound also gave a half-life in [7] (terminal phase) of 68 to 75 h. The compound also came in with an MIC in [3] of 1.56 µM (≈ 0.564 µg/mL). In addition, the “concentrations at which not toxic, human fibroblast cytotoxicity” value in data set [4] is not below 100 µM. The oral absorption result in data set [8] is “absorbed rapidly”. In data set [8] (po), the “minimum rate of absorption (urinary excretion including cage washes and residues in tissues/organs)” value is listed as “at least 40 % of the administered dose”; the “time at which test substance was already found in the blood” value was 15 min; the “time of peak (maximum) blood concentration” value fell in the range of 6 to 8 h.

With `C[C@@H](Oc1ccc(Oc2cnc3cc(Cl)ccc3n2)cc1)C(=O)O` [quizalofop-p, (2R)-2-{4-[(6-chloroquinoxalin-2-yl)oxy]phenoxy}propanoic acid, reference compound], in data set [6] (mouse plasma), the “Percentage of Compound Bound” value was found to be 96.8% and the “Percentage of Compound Recovered” value was 90%. This compound came in with a half-inhibitory concentration (IC50) in data set [2] of 800 nM. Also, the “peak plasma concentration of quizalofop-p” value in data set [5] (quizalofop-p-ethyl or quizalofop-p in carboxymethylcellulose or canola oil, gavage 50 mg/kg, 8 hours after gavage) is recorded as 35.

On to `CCOC(=O)[C@@H](C)Oc1ccc(Oc2cnc3cc(Cl)ccc3n2)cc1` [quizalofop-p-ethyl, ethyl (2R)-2-{4-[(6-chloroquinoxalin-2-yl)oxy]phenoxy}propanoate], for which, in data set [6] (plasma), the “stability under assay conditions (plasma esterase activity)” value is given as “not stable under assay conditions”. Moreover, the “LD50, rabbits” value in data set [9] is “greater than 2,000 mg/kg”. The “share of a single oral dose eliminated in urine” value in data set [10] is listed as “more than 90%”. Also, in data set [2] (setting [14]), the concentration for half-maximal inhibition (IC50) was determined as 2300 nM. In addition, the MIC in [3] (setting [15]) lay in the range of 0.68 to 1.56 µM (≈ 0.254 to 0.582 µg/mL). Also, in data set [11], the “time to convert from ester to acid” value is listed as approximately 3 h. Besides, in data set [11] (oral), the “time of peak (maximum) blood concentration” value is given as “six to nine”. In addition, the oral absorption entry in [11] (oral route) is given as “absorbed to a considerable extent by the oral route”. Besides, the “doses causing zero observed effects” value in data set [12] is given as “up to 10 mg/kg/day”. Moreover, in data set [13], the carcinogen classification entry is reported as “Group D carcinogen”. Further, in data set [5] (gavage 50 mg/kg), the “concentration of quizalofop-p-ethyl detected at all collection timepoints” value is on record as “much lower than the concentration of quizalofop-p detected”.
